Laboratory results reported in patent US20240199663A1, “Cyclopolyphosphazenes, Related Methods of Preparation and Methods of Use” (University of Saskatchewan, priority 2021, published 2024).

Assays:
[1] = system: SipD-antigen-specific IgG; assay: Vaccination in chicken with SipD as an antigen, serum IgG ELISA; format: in vivo, Leghorn chicken; details: triple adjuvant composition (20 μg polyphosphazene: 40 μg IDR-1002: 20 μg Poly(I:C)) with 10 μg SipD, intramuscular, after two immunizations (Week 4), FIG. 1B
Procedure: To assess the adjuvant activity of cyclopolyphosphazene candidates, such as 37, 11 and 39, an in vivo study was conducted with intramuscular administration of a Salmonella typhimurium Cell invasion protein (SipD) vaccine in young chicken. Two-week-old Leghorn chicken were randomly divided into three single adjuvant groups, three triple adjuvant groups and one PBS-adjuvant control group (n=12/group). The single adjuvant groups contained 20 μg PCEP, 11 or 37 polyphosphazene. All triple adjuvants comprised Poly(I:C), IDR-1002 peptide and a polyphosphazene: either PCEP, 37 or 11.
All vaccines were formulated prior to administration and injected in 200 μL intramuscularly in the tail area. Chicken were vaccinated at Day 0 and Day 14 (Week 2) with the same dose. […]
Serum was collected on days 0, 14 and 28 for SipD-antigen-specific IgG ELISAs. […] Plates were read with a Molecular Devices SpectraMax Plus 384 Reader™. Data were expressed as titres, which represent the dilution factor required to generate an absorbance reading two standard deviations above the average value of the negative control, e.g. serum from control chicken receiving no vaccination.

antigen-specific IgG2a = assay: Vaccination in mice with ovalbumin as an antigen, serum IgG2a ELISA; format: in vivo, Balb/c mice; details: triple adjuvant composition (10 μg polyphosphazene: 20 μg IDR-1002: 10 μg Poly(I:C)) with Ova 50 μg or 1 μg, intramuscular, after two immunizations (Week 8), FIGS. 3 and 5
Procedure: (§1) To assess the adjuvant activity of the cyclopolyphosphazene 37, four in vivo studies were conducted with intramuscular administration of an ovalbumin (Ova) vaccine in mice. In the first two studies, the Ova vaccine was either formulated with no adjuvant or with a triple adjuvant (TriAdj). The first two studies compared three different triple adjuvants, all comprising Poly(I:C), IDR-1002 peptide and a polyphosphazene: either PCEP, 37 or 11. The third and fourth studies compared four different triple adjuvants, all comprising Poly(I:C), IDR-1002 peptide and a polyphosphazene: either PCEP, compound 11, compound 37 or compound 39.
(§2) In all studies, mice were randomized to cages such that the various treatment groups were not together in the same cage. All groups received Ova antigen mixed with the adjuvant (or not) just prior to intramuscular administration. All the vaccines were formulated and injected in 50 μL (25 μ/leg). Mice were vaccinated at Day 0 and Day 28 (Week 4) with the same dose.
(§3) In all studies, serum was collected on days 0, 28 and 56 for antigen-specific IgG1 and IgG2a ELISAs. […] Plates were read with a Biorad iMark Microplate Reader™. Data were expressed as titres, which represent the dilution factor required to generate an absorbance reading three standard deviations above the average value of the negative control, e.g. serum from control mice receiving no vaccination. […]

antigen-specific IgG1 = assay: Vaccination in mice with ovalbumin as an antigen, serum IgG1 ELISA; format: in vivo, Balb/c mice; details: triple adjuvant composition (10 μg polyphosphazene: 20 μg IDR-1002: 10 μg Poly(I:C)) with Ova 50 μg or 1 μg, intramuscular, after two immunizations (Week 8), FIGS. 2 and 5
Procedure: as §1, §2, §3

CCCCCCCCCCCC(=O)NCCCCCCNC(=O)C(CCCCN)NC(=O)CCc1ccc(OP2(Oc3ccc(CCC(=O)NC(CCCCN)C(=O)NCCCCCCNC(=O)CCCCCCCCCCC)cc3)=NP(Oc3ccc(CCC(=O)NC(CCCCN)C(=O)NCCCCCCNC(=O)CCCCCCCCCCC)cc3)(Oc3ccc(CCC(=O)NC(CCCCN)C(=O)NCCCCCCNC(=O)CCCCCCCCCCC)cc3)=NP(Oc3ccc(CCC(=O)NC(CCCCN)C(=O)NCCCCCCNC(=O)CCCCCCCCCCC)cc3)(Oc3ccc(CCC(=O)NC(CCCCN)C(=O)NCCCCCCNC(=O)CCCCCCCCCCC)cc3)=N2)cc1 (stereo not drawn) [Compound 37, N,N′,N″,N′″,N″″,N′″″-(((2,2′,2″,22′″,2″″,2′″″-((3,3′,3″,3′″,3″″,3′″″-(((1,3,5,2l5,4l5,6l5-triazatriphosphinine-2,2,4,4,6,6-hexayl)hexakis(oxy))hexakis(benzene-4,1-diyl))hexakis(propanoyl))hexakis(azanediyl))hexakis(6-aminohexanoyl))hexakis(azanediyl))hexakis(hexane-6,1-diyl))hexadodecanamide]
significantly greater response: antigen-specific IgG titres relative to a vaccine without adjuvant [1] | response in IgG2a relative to a vaccine without adjuvant (antigen-specific IgG2a) | response in IgG1 relative to a vaccine without adjuvant (antigen-specific IgG1)
